Patent US20180258100A1, “RAPAMYCIN ANALOGS SHOWING IMPROVED mTORC1 SPECIFICITY” (priority 2015, published 2018)

Assays:
mTORC1 = target: T1, mTORC1 (Homo sapiens, UniProt P42345+P62942); test: Western blot of PC3 cells, 24 h at 100 nM, comparison with commercial rapalogs, mTORC1 (p-S6K); type: cell-based
T1 construct: endogenous in cells; host or cells: PC3 cells
Description: (§1) PC3 cells were maintained in F12K media supplemented with 10% FBS, 1% Penicillin/Streptomycin, and 2 mM L-Glutamine and cultured at 37° C. Cells were treated with 100 nM Rapamycin, Temsirolimus, Everolimus, and rapalog compounds 390, 394, 824, 384 or 405 for 24 h and harvested in RIPA buffer (300 mM NaCl, 1.0% NP-40, 0.5% sodium deoxycholate, 0.1% SDS, 50 mM Tris pH 8.0. Protein concentrations were determined using the DC protein assay (Biorad).
(§2) Equal amounts of protein were resolved by SDS-PAGE and transferred to nitrocellulose membrane using the Invitrogen Nu-Page system. The membranes were blocked for 1 h in 5% milk and incubated overnight in the appropriate antibodies. The following day, blots were washed 3 times in TBST, incubated for 2 h with secondary antibodies (donkey anti rabbit hrp conjugated), and finally washed an additional 3 times in TBST. ECL Prime (Amersham) was used to detect the proteins of interest and blots were quantified using ImageJ software.

mTORC2 = target: T2, mTORC2 (Homo sapiens, UniProt P42345+P62942); test: Western blot of PC3 cells, 24 h at 100 nM, comparison with commercial rapalogs, mTORC2 (p-Akt); type: cell-based; details: PC-3, read-out: mTORC2 (p-Akt) activity, % of control
T2 construct: endogenous in cells; host or cells: PC3 cells
T2 sequence (P62942 2-108 limits assumed, other chains not shown): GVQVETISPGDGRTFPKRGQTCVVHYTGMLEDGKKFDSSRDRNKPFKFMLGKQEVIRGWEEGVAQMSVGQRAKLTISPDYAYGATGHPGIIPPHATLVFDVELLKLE
Description: as §1, §2

[1] = Fat mass by EchoMRI body composition after four weeks; type: in vivo, male C57BL/6J mice; details: 4 weeks of every other day administration; rapamycin 8 mg/kg, compound 390 12 mg/kg; versus vehicle
Description: (§3) Fortyfive C57BL/6J male mice, housed three per cage, were weighed and their body composition was measured with an EchoMRI 3-in-1 system. Cages were sorted into three groups—vehicle, rapamycin, and compound 390—such that the average weight was similar for all three groups. Mice received every-other-day injections of either vehicle, rapamycin (8 mg/kg), or compound 390 (12 mg/kg). A glucose tolerance test was performed after 2 weeks (morning after the 8th injection). A pyruvate tolerance test was performed after 3 weeks. Glucose stimulated insulin secretion assay was performed after 4 weeks and additional blood was collected for whole blood analysis. Body composition was measured on day −2 and day 31.

[2] = Steady state glucose levels after one week of i.p. dosing; type: in vivo, female C57BL/6J mice; details: 8 mg/kg i.p. every other day
Description: (§4) 10-week old female C57BL/6J mice were given intraperitoneal injections of 8 mg/kg rapamycin (LC laboratories), 12 mg/kg compound 390 or vehicle every other day for three weeks (N=5 mice/group), such as to mimic chronic exposure conditions. 24 hours after the last injection, tissues were dissected from the mice and immediately frozen in liquid nitrogen. The tissues were homogenized using the Omni TH homogenizer (Omni International) on ice in RIPA buffer and then centrifuged at 13,000 rpm for 15 minutes at 4° C. The supernatants were collected and protein concentration was determined using the DC protein assay (Biorad).
Steady state glucose levels were determined after one week from study initiation using a Bayer Contour blood glucose meter and test strips from small blood samples, which were withdrawn from a tail vein nick. At the end of the second week, the animals were challenged by administration of 2 mg/kg glucose; glucose levels were determined for two hours following the challenge at 30 min intervals.

[3] = Plasma lipid levels after chronic i.p. dosing; type: in vivo, female C57BL/6J mice; details: rapamycin 8 mg/kg, compound 390 12 mg/kg i.p. every other day; versus vehicle
Description: as §4
Plasma lipid levels were determined at the end of the three-week exposure. Free fatty acids in the serum were measured by the HR Series NEFA-HR(2) (Wako Diagnostics, Richmond, Va.). Triglycerides and cholesterol in serum were measured by Triglycerides Liquicolor Test and Cholesterol Liquicolor Test (Stanbio laboratory, Boerne, Tex.), respectively.

[4] = Insulin challenge response; type: in vivo, female C57BL/6J mice; details: 0.75 IU/kg insulin after 2 weeks; rapamycin 8 mg/kg, compound 390 12 mg/kg i.p. every other day
Description: FIG. 10. Response to insulin challenge following administration of 0.75 IU/kg insulin at t=2 weeks following the initiation of the intraperitoneal administrations of 8 mg/kg rapamycin, 12 mg/kg compound 390 or vehicle control every other day in female mice (N=5).
as §4

[5] = Glucose challenge response; type: in vivo, female C57BL/6J mice; details: 2 mg/kg glucose after 1 week; rapamycin 8 mg/kg, compound 390 12 mg/kg i.p. every other day
Description: as §4
Steady state glucose levels were determined after one week from study initiation using a Bayer Contour blood glucose meter and test strips from small blood samples, which were withdrawn from a tail vein nick. […]

[6] = Glucose tolerance test after 2 weeks of chronic dosing; type: in vivo, male C57BL/6J mice; details: rapamycin 8 mg/kg, compound 390 12 mg/kg every other day, male mice
Description: as §3, with “Cages were sorted into three groups—vehicle, rapamycin, and compound 390—such that the average weight was similar for all three groups.” left out
Mice were fasted overnight for 16 hours and then injected with either glucose (1 g/kg) or pyruvate (2 g/kg) intraperitoneally. For glucose and pyruvate tolerance tests, small blood samples were taken from a tail vein nick at time intervals and read using a Bayer Contour blood glucose meter and test strips. For glucose-stimulated insulin secretion, blood glucose levels were read using a glucometer and then 50 μL of blood was collected into a heparinized tube immediately prior to and 15 minutes following glucose administration. Insulin levels were determined using a Mouse Insulin ELISA kit (Crystal Chem).

## CO[C@H]1C[C@@H]2CC[C@@H](C)[C@@](O)(O2)C(=O)C(=O)N2CCCC[C@H]2C(=O)O[C@H]([C@H](C)C[C@@H]2CC[C@@H](OCCO)[C@H](OC)C2)CC(=O)[C@H](C)/C=C(\C)[C@@H](O)[C@@H](OC)C(=O)[C@H](C)C[C@H](C)/C=C/C=C/C=C/1C [Everolimus]
mTORC1
  mTORC1 (p-S6K) inhibition: performed identically to rapamycin
mTORC2
  remaining activity at 0.1 µM: ~5%

## CO[C@H]1C[C@@H]2CC[C@@H](C)[C@@](O)(O2)C(=O)C(=O)N2CCCC[C@H]2C(=O)O[C@H]([C@H](C)C[C@@H]2CC[C@@H](O)[C@H](OC)C2)CC(=O)[C@H](C)/C=C(\C)[C@@H](O)[C@@H](OC)C(=O)[C@H](C)C[C@H](C)/C=C/C=C/C=C/1C [Rapamycin]
[1]
  fat mass (adiposity): statistically significant increase of fat mass
mTORC2
  remaining activity at 0.1 µM: ~5%
[2]
  glucose steady state level: ~75 mg/dL
  increase of glucose steady state level from baseline: approx. 55%
  increase of glucose steady state level versus vehicle-receiving animals: 3 fold
[3]
  plasma free fatty acids: substantial and statistically significant increase
[4]
  glucose response after insulin challenge (insulin resistance): deviates significantly from the response observed with the control animals
[5]
  glucose response after glucose challenge (glucose intolerance): deviates significantly from the response observed with the control animals
[6]; after 2 weeks
  glucose tolerance test: impaired glucose and pyruvate tolerance tests
[6]; chronic dosing
  fasting hyperglycemia: induced

## CO[C@H]1C[C@@H]2CC[C@@H](C)[C@@](O)(O2)C(=O)C(=O)N2CCCC[C@H]2C(=O)O[C@H]([C@H](C)C[C@@H]2CC[C@@H](OC(=O)C(C)(CO)CO)[C@H](OC)C2)CC(=O)[C@H](C)/C=C(\C)[C@@H](O)[C@@H](OC)C(=O)[C@H](C)C[C@H](C)/C=C/C=C/C=C/1C [Temsirolimus]
mTORC1
  mTORC1 (p-S6K) inhibition: performed identically to rapamycin
mTORC2
  remaining activity at 0.1 µM: ~5%
